Results on 4 molecules are retold here after patent US7662644B2, “Labeled peptides, proteins and antibodies and processes and intermediates useful for their preparation” (priority 2000, dated 2010).

The target in data set [1] is T1, Rac (Homo sapiens, UniProt P63000).
T1 construct: ECFP or EYFP (fusion partner)
The settings on record: literature value; read-out: previously reported GTPγS dissociation constant; cited from earlier work.

Data set [2] deals with T2, GFP-Rac1 (Homo sapiens, UniProt P63000).
T2 construct: 6His; made in house; host or cells: E. coli BL21DE3 (stated for PBD; 'similar procedure' for GFP-Rac1)
The data set can be described thus: In vitro FRET titration of Alexa-PBD with GFP-Rac1. The data set is classed as binding. The settings on record: at saturating Alexa-PBD; read-out: apparent GTPγS dissociation constant. The protocol: FRET between Alexa-PBD and GFP-Rac1 was efficient and dependent on GTP-Rac 1 binding. […] Purified GFP-Rac1 (200 nM) was bound to varying concentrations of […] or GDP at low magnesium by 30 min incubation at 30° C. as described previously (U. G. Knaus et al., J. Biol. Chem. 267, 23575-23582 (1992)), using the following nucleotide equilibration buffer: 50 mM Tris HCl (pH 7.6), 50 mM NaCl, 5 mM MgCl2, 10 mM EDTA, and 1 mM DTT. […] Spectra were corrected for dilution upon Alexa-PBD addition. Alexa-PBD concentrations were either varied as shown, or maintained at 1 micromolar when saturating Alexa-PBD was required. The spectra shown were corrected for direct excitation of the Alexa fluorophore by acquiring spectra of Alexa-PBD alone at equivalent concentrations, and subtracting these from spectra shown in FIG. 7. Kd were determined by fitting to the equation: Y=A*X/(Kd+X). In the FIG. 7, panel A inset, only points actually used in the curve fitting are shown. Higher, saturating concentrations of AlexaPBD were not used because errors from subtraction of direct Alexa excitation became larger. […] The apparent GTPγS dissociation constant was determined at saturating Alexa-PBD by fitting the experimental data to the Michaelis equation (FIG. 7b). […]

A short description of data set [3]: Spectral data for selected merocyanine dyes (absorbance and fluorescence spectra). The data set is classed as physicochemical. Also on record: Absorption Maximum / Emission Maximum: unit not given here. The conditions noted are these: in n-butanol. The protocol:
Absorbance spectra were recorded on Hewlett-Packard HP8452 diode array spectrophotometer and fluorescence spectra were recorded on SPEX Fluorolog 2 spectrometer.

Data set [4] has as its target T3, RhoA (Homo sapiens, UniProt P61586).
T3 construct: 6His; made in house; host or cells: E. coli BL21DE3 (by 'analogous procedures')
The data set can be described thus: Fluorescence of mero-CBD in presence of RhoA-GTPγS. It is filed as binding. The settings on record: RhoA-GTPγS present. The procedure: (§1) Analyses of the solvatochromic activation indicator—A solution of mero-CBD (300 nM) in assay buffer was mixed 1:1 (v/v) with solutions of cdc42 (concentration as indicated), pre-equilibrated with 10 mM GDP or GTPγS as described in Knaus, U. G., Heyworth, P. G., Kinsella, B. T., Cumutte, J. T., and Bokoch, G. M. (1992) J. Biol. Chem. 267, 23575-23582. Emission wavelength of 630 nm and excitation wavelength of 600 nm were used to acquire excitation and emission spectra, respectively. For nucleotide dependence, cdc42 (500 nM) was pre-incubated with varying concentrations of GTPγS (1 to 500 nM). Rac1 and RhoA GTPases were pre-equilibrated with GTPγS in the same manner.
(§2) Fluorescence increase as a measure of CBD-cdc42 interaction—The functionality and specificity of mero-CBD was characterized by measuring fluorescence in the presence of saturating amounts of cdc42-GDP or cdc42-GTPγS. […] Negligible increase (<5%) was also observed in the presence of activated Rac1. No effect on the mero-CBD fluorescence was observed when RhoA-GTPγS was present. Furthermore, even in the presence of excess of activated Rac1 and RhoA, GDP- and GTPγS-bound forms of cdc42 were easily distinguished by CBD-A4C fluorescence (data not shown).

Data set [5] in a line: Storage of labeled CBD aliquots. It is filed as physicochemical. The conditions noted are these: aliquots 15 to 50 μM stored at −80° C. for 6 months. The procedure:
Conjugation of CBD with fluorescent dyes—Dialyzed CBD samples (100-150 μM) were gently inverted with 6 to 7-fold molar excess of the reactive dye at 25° C. for 3 to 4 hours. The reaction was stopped by addition of 10 mM dithiothreitol (DTT), and the mixture was incubated for 15 min. Unreacted dye was separated from the labeled protein using […] (Pharmacia) gel filtration column equilibrated and developed with 25 mM Na2HPO4 (pH 7.5). Purity of the eluting fractions was analyzed by running an aliquot on an SDS gel and visualizing the fluorescence. Only the fractions containing minimal amounts of free dye were used in the subsequent experiments. Dye-to-protein ratio was determined by measuring CBD concentration (ε^280=8,250 M^−1), and A4C concentration at 617 nm (ε=70,000 M^−1 in dimethylsulfoxide) or Alexa546 at 554 nm (ε=104,000 M^−1 in 50 mM potassium phosphate, pH 7.0). Concentrations of CBD were independently confirmed by Coomassie Plus assay (Pierce) calibrated with bovine serum albumin as a standard. Dye-to-protein ratios thus obtained varied between 0.8 and 1.2, 1.7 and 2.1 for the single-dye and dual-dye conjugates, respectively. Aliquots of the labeled CBD (15 to 50 μM) were stored at −80° C. […] In this example, CBD-conjugates were made with the dye shown in FIG. 11, and are referred to as mero-CBD (for merocyanines dye conjugated to CBD).

The target of data set [6] is T4, cdc42 (Homo sapiens, UniProt P60953).
T4 construct: 6His; made in house; host or cells: E. coli BL21DE3 (stated for CBD; 'analogous procedures' for cdc42)
T4 sequence (P60953 whole entry, species assumed): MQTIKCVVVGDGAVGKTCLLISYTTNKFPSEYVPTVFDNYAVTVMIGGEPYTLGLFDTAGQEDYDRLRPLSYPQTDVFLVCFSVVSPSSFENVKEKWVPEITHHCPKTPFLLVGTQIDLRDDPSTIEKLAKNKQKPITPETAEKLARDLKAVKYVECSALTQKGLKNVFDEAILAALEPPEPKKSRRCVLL
As to the kind of experiment: Fluorescence of mero-CBD on binding cdc42. The conditions noted are these: for increase of fluorescence on binding activated cdc42 (cdc42-GTPγS): saturating cdc42-GTPγS. The protocol: as §1, §2

Data set [7] deals with T5, Rac1 (Homo sapiens, UniProt P63000).
T5 construct: 6His; made in house; host or cells: E. coli BL21DE3 (by 'analogous procedures')
As to the kind of experiment: Fluorescence of mero-CBD in presence of activated Rac1. The data set is classed as binding. The conditions noted are these: Rac1 pre-equilibrated with GTPγS. The protocol: as §1, §2

Bounds are passed on as bounds.

T3 sequence (P61586 whole entry, species assumed): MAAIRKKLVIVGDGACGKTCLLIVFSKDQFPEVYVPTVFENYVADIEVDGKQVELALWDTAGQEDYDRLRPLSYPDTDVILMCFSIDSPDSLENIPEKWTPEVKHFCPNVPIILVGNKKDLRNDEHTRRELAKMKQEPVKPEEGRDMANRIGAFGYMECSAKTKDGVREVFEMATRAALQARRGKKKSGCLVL

For the molecule `Nc1nc2c(ncn2[C@@H]2O[C@H](COP(=O)(O)OP(=O)(O)OP(O)(O)=S)[C@@H](O)[C@H]2O)c(=O)[nH]1` [GTPγS], the Kd is 50 nM in data set [1] and 47 ± 9 nM in data set [2].

Consider `CC1(C)/C(=C/C=C/C=C2/C(=O)c3ccccc3C2=C(C#N)C#N)N(CCCS(=O)(=O)[O-])c2ccccc21.[Na+]` [Compound 4], for which, in data set [3], the “Absorption Maximum” value was found to be 667, the “Emission Maximum” value was determined as 693, the “Extinction coefficient (*10^−3)” value is reported as 80 and the “Quantum Yield” value is given as 0.10.

As to `CC1(C)/C(=C/C=C/C=C2/C(=O)c3ccccc3S2(=O)=O)N(CCCS(=O)(=O)[O-])c2ccccc21.[Na+]` [Compound 3], in data set [3], the “Absorption Maximum” value amounted to 586, the “Emission Maximum” value was 618, the “Extinction coefficient (*10^−3)” value was 120 and the “Quantum Yield” value came out at 0.17.

B1: mero-CBD: cdc42 binding domain of WASP conjugated to the merocyanine dye shown in FIG. 11 (conjugate)
chain: DIQNPDITSSRYRGLPAPGPSPADKKRSGKKKISKADIGAPSGFKHVSHVGWDPQNGFDVNNLDPDLRSLCSRAGISEAQLTDAETSKLIYDFIEDQGGLEAVRQEMRRQEPLPPPPPPSR
modifications: left off: small tags and cut ends
For the molecule B1, in data set [4], the “effect of RhoA-GTPγS on fluorescence” value is “No effect”. Also, the “loss of binding ability on storage” value in data set [5] is on record as “No significant loss of binding ability”. Moreover, the “increase of fluorescence with cdc42-GDP” value in data set [6] (saturating cdc42-GDP) was “but not cdc42-GDP”. Also, the “increase of fluorescence on binding activated cdc42 (cdc42-GTPγS)” value in data set [6] was “Approximately 3.5 fold”; in data set [6] (listed as CBD biosensor), “up to 3.5 fold”. Also, the “increase of fluorescence in the presence of activated Rac1” value in data set [7] is given as under 5%.
